Reference: patent publication US20240384250A1, “FIBROBLAST GROWTH FACTOR 23 MODULATING COMPOUNDS” (THE UAB RESEARCH FOUNDATION, priority 2021, published 2024)
Entries after “also recorded” stand apart in the source; their conditions may differ.

Tests used:
FGF23/FGFR4 binding = target: T1, FGF23/FGFR4 binding (Homo sapiens, UniProt P22455+Q9GZV9, R179Q); assay: Surface plasmon resonance, FGF23 binding to surface FGFR4 with heparin or sKL in solution; details: heparin or sKL in solution
T1 construct: Fc-FGFR4 protein (human ectodomain) was immobilized; purchased R&D Systems human FGF23 2604FG025/CF; human FGFR4 685FR050
T1 sequence (Q9GZV9 25-251 R179Q): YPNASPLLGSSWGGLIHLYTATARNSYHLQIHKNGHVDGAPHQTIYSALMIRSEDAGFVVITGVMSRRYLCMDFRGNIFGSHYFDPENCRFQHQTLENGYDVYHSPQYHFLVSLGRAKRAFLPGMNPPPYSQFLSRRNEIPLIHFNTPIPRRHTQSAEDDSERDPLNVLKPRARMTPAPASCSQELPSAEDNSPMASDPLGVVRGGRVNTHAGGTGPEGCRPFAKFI
T1 sequence (P22455 22-369 limits assumed): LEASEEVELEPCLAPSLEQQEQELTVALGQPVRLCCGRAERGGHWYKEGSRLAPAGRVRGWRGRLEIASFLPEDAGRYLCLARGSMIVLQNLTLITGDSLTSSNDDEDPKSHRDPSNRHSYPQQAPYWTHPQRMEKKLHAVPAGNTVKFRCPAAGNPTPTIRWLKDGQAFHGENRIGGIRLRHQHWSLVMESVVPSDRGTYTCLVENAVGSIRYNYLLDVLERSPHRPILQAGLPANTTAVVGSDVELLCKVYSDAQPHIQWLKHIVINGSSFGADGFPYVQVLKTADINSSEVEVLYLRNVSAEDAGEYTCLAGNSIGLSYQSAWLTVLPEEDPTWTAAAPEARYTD
Protocol: For the direct quantitative analysis of label-free molecular interactions in real time, surface plasmon resonance studies were conducted using BIAcore T200 and T200 evaluation software (28975001, Cytiva). Sensor SA (BR100398) and CMS chips (BR100399) were from Cytiva. For the preparation of heparin chips, heparin (2 mg) and amine-PEG3-Biotin (2 mg, 21347, Pierce) were dissolved in 200 μl of H2O and 10 mg of NaCNBH3 was added. The reaction mixture was heated at 70° C. for 24 hours; an additional 10 mg of NaCNBH3 was added; and the reaction was heated at 70° C. for another 24 hours. After cooling to room temperature, the mixture was desalted with the spin column (3000 MWCO). Biotinylated heparin was collected, freeze dried, and used for chip preparation. Biotinylated heparin was immobilized to streptavidin chips according to the manufacturer's protocol. In brief, 20 μl of biotinylated heparin solution (0.1 mg/ml) in HBS-P running buffer (0.01 M N-2-hydroxyethylpiperazine-N′-2-ethanesulfonic acid, 0.15 M NaCl, 0.005% surfactant P20 [pH7.4]; BR100368, Cytiva) was injected over flow cell 2 of the streptavidin chip at a flow rate of 10 μl/min. The successful immobilization of heparin was confirmed by the observation of an approximately 200-resonance unit increase in the sensor chip. […] The response was monitored as a function of time (sensorgram) at 25° C.

[1] = test system: intact hearts isolated from adult mice; assay: Isolated heart contractility; parameters: species or system mouse; details: FGF23 9 ng/ml with heparin 0.06 USP/ml
Protocol: Isolated heart contractility was performed as described previously. 14,70,71 Briefly, 2- to 3-month-old male CD-1 mice were anesthetized using 3% isoflurane and hearts were carefully removed and placed into oxygenated Ringer's solution composed of 140 mM NaCl, 2.0 mM KCl, 2.5 mM CaCl2), 1.0 mM MgSO4, 1.5 mM K2HPO4, 10 mM N-2-hydroxyethylpiperazine-N-2-ethanesulfonic acid, and 10 mM glucose (pH 7.4). Atria were then removed, and the intact ventricular muscle was attached to small metallic clips hung vertically from a force transducer (ADInstruments) between bipolar platinum-stimulating electrodes and suspended in 25-ml glass tissue chambers (ADInstruments). Heart muscles were perfused with Ringer's solution continuously bubbled with 100% O2 at room temperature. Hearts were stretched to the length of maximum force development and paced at 1 Hz (5 ms pulse duration, 30-60 V; Grass Instruments SD9 Square Pulse Stimulator). After a stable baseline was obtained, hearts were treated with either vehicle or FGF23 (9 ng/ml) alone or in combination with heparin (0.06 USP/ml) while contractile force output was monitored for 30 minutes. Contractile data were recorded and analyzed with LabChart 8 software (ADInstruments). Waveform changes were analyzed for peak contraction force (in millinewtons) and maximum slope of force development and presented as fold change from baseline values.

Substance: heparin [reference compound]
- increase in FGF23/FGFR4 binding affinity (FGF23/FGFR4 binding): approximately 3 fold
- FGF23-increased contraction force in the presence of heparin [1]: further increase; also recorded: further elevated
